Measured values: patent US20120142771A1, “BIPHENYLACETAMIDE DERIVATIVE” (Dainippon Sumitomo Pharma Co., Ltd., priority 2008, published 2012)

System: maximum electroshock seizure (MES) model
Assay: Maximum electroshock seizure (MES) model test
Format: in vivo, mice
Outline: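 Tonic hind-limb extension was elicited by corneal electroshock (60 Hz, 25 mA, 0.2 s) 1 h after oral dosing. Test compounds were given at 50 or 100 mg/kg to groups of 3 male Slc: ddY mice (20-30 g), vehicle controls receiving 0.5% tragacanth or 0.5% methylcellulose solution.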

SMILES: NC(=O)Cc1ccccc1-c1ccccc1F [Example 1, 2-(2′-Fluorobiphenyl-2-yl)acetamide]
- responders at 50 mg/kg (Mus musculus, po, 1 h, 50 mg/kg oral, Slc: ddY male mice, 3 per group, electrical stimulation 1 hour after administration, inhibition of hind limb extension, read-out: MES (positive number/tested number) (converted)): 100%
- responders at 100 mg/kg (Mus musculus, po, 1 h, 100 mg/kg oral, Slc: ddY male mice, 3 per group, electrical stimulation 1 hour after administration, inhibition of hind limb extension, read-out: MES (positive number/tested number) (converted)): 100%
- anticonvulsant action in maximum electroshock seizure (MES) model test (mice, oral 50 or 100 mg/kg, 1 hour after administration): anticonvulsant action was observed
